Measurements published in ChEMBL document CHEMBL1201862, “PubChem BioAssay data set” (2004).
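Tested at 5 concentrations; 48 h exposure; 96-well plates; endpoints linearly interpolated, else capped at highest concentration. Abbreviation: GI50, concentration required for 50% inhibition of growth.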 Activity calls are given as the source filed them. Rule as the data show it: active = GI50 up to about 1.1 µM and inactive = higher.

Key:
Test in all cases: NCI anticancer screen, dose series, 48 h
786-0 = tested on: 786-0
A498 = tested on: A498
A549 = tested on: A549
ACHN = tested on: ACHN
BT-549 = tested on: BT-549
CAKI-1 = tested on: CAKI-1
CCRF-CEM = tested on: CCRF-CEM
COLO 205 = tested on: COLO 205
DU-145 = tested on: DU-145
EKVX = tested on: EKVX
HCT-116 = tested on: HCT-116
HCT-15 = tested on: HCT-15
HL-60 = tested on: HL-60
HOP-62 = tested on: HOP-62
HT-29 = tested on: HT-29
Hs-578T = tested on: Hs-578T
IGROV-1 = tested on: IGROV-1
K562 = tested on: K562
KM12 = tested on: KM12
LOX IMVI = tested on: LOX IMVI
M14 = tested on: M14
MCF7 = tested on: MCF7
MDA-MB-231 = tested on: MDA-MB-231
MDA-MB-435 = tested on: MDA-MB-435
MDA-N = tested on: MDA-N
MOLT-4 = tested on: MOLT-4
Malme-3M = tested on: Malme-3M
NCI-H226 = tested on: NCI-H226
NCI-H23 = tested on: NCI-H23
NCI-H460 = tested on: NCI-H460
NCI-H522 = tested on: NCI-H522
NCI/ADR-RES = tested on: NCI/ADR-RES
OVCAR-3 = tested on: OVCAR-3
OVCAR-4 = tested on: OVCAR-4
OVCAR-5 = tested on: OVCAR-5
OVCAR-8 = tested on: OVCAR-8
PC-3 = tested on: PC-3
RPMI-8226 = tested on: RPMI-8226
RXF 393 = tested on: RXF 393
SF-295 = tested on: SF-295
SF-539 = tested on: SF-539
SK-MEL-28 = tested on: SK-MEL-28
SK-MEL-2 = tested on: SK-MEL-2
SK-MEL-5 = tested on: SK-MEL-5
SK-OV-3 = tested on: SK-OV-3
SN12C = tested on: SN12C
SNB-19 = tested on: SNB-19
SNB-75 = tested on: SNB-75
SR = tested on: SR
SW-620 = tested on: SW-620
T47D = tested on: T47D
TK-10 = tested on: TK-10
U-251 = tested on: U-251
UACC-257 = tested on: UACC-257
UO-31 = tested on: UO-31

Measured: GI50

O=C(Nc1nnc(-c2ccccc2)o1)C(SC(=S)N1CCCCC1)c1ccccc1 (stereo not given)
5.02 µM: HCT-15
inactive: 786-0 16.7 µM | A498 27.3 µM | A549 17.1 µM | ACHN 15.1 µM | BT-549 14 µM | CAKI-1 18.9 µM | CCRF-CEM 3.35 µM | COLO 205 31 µM | DU-145 17.2 µM | EKVX 20.9 µM | HCT-116 13.4 µM | HL-60 3.11 µM | HOP-62 18.3 µM | HT-29 20.6 µM | Hs-578T 59.8 µM | IGROV-1 15.9 µM | K562 9.55 µM | KM12 22.9 µM | LOX IMVI 4.16 µM | M14 12.6 µM | MCF7 23.4 µM | MDA-MB-231 38.5 µM | MDA-MB-435 21.3 µM | MDA-N 20.7 µM | MOLT-4 3.53 µM | Malme-3M 26.2 µM | NCI-H226 25.4 µM | NCI-H23 12.4 µM | NCI-H460 7.66 µM | NCI-H522 23.5 µM | NCI/ADR-RES 3.93 µM | OVCAR-3 17.3 µM | OVCAR-4 30.5 µM | OVCAR-5 26.6 µM | OVCAR-8 26.5 µM | PC-3 17.5 µM | RPMI-8226 16.2 µM | RXF 393 26.3 µM | SF-295 14.1 µM | SF-539 28.1 µM | SK-MEL-28 24.1 µM | SK-MEL-2 17.7 µM | SK-MEL-5 13.6 µM | SK-OV-3 28.4 µM | SN12C 10.9 µM | SNB-19 32.1 µM | SNB-75 30.4 µM | SR 4.98 µM | SW-620 31.8 µM | T47D 31.2 µM | TK-10 56 µM | U-251 14.4 µM | UACC-257 32.4 µM | UO-31 8.79 µM
